PubChem BioAssay AID1963868 (Molecular Pharmacology Branch, DTP, NCI, 2024)

System: KRAS PDC tumor spheroids (HUVEC+MSC), viability
Test: Anticancer human tumor 254851-301-R-J1-PDC patient-derived colon carcinoma cell line growth inhibition [KRAS2]
Details: for IC50: curve of first compound; for viability, T/C: stronger effect = lower value
Method in brief: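 KRAS-mutant tumor cells were grown as spheroids with HUVEC endothelial cells and human MSCs as stroma. Targeted agents were tested alone and with KRAS pathway inhibitors. Doses started at or near clinical Cmax, or 10 microM, descending half-log.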

[1] = second compound 0.1 µM, first compound 0.01 µM
[2] = second compound 0.1 µM, first compound 0.0316 µM
[3] = second compound 0.1 µM, first compound 0.1 µM
[4] = second compound 0.1 µM, first compound 0.316 µM
[5] = second compound 0.1 µM, first compound 1 µM
[6] = second compound 0.1 µM, first compound 3.16 µM
[7] = second compound 0.316 µM, first compound 0.01 µM
[8] = second compound 0.316 µM, first compound 0.0316 µM
[9] = second compound 0.316 µM, first compound 0.1 µM
[10] = second compound 0.316 µM, first compound 0.316 µM
[11] = second compound 0.316 µM, first compound 1 µM
[12] = second compound 0.316 µM, first compound 3.16 µM
[13] = second compound 1 µM, first compound 0.01 µM
[14] = second compound 1 µM, first compound 0.0316 µM
[15] = second compound 1 µM, first compound 0.1 µM
[16] = second compound 1 µM, first compound 0.316 µM
[17] = second compound 1 µM, first compound 1 µM
[18] = second compound 1 µM, first compound 3.16 µM
[19] = second compound 3.16 µM, first compound 0.01 µM
[20] = second compound 3.16 µM, first compound 0.0316 µM
[21] = second compound 3.16 µM, first compound 0.1 µM
[22] = second compound 3.16 µM, first compound 0.316 µM
[23] = second compound 3.16 µM, first compound 1 µM
[24] = second compound 3.16 µM, first compound 3.16 µM
[25] = second compound 10 µM, first compound 0.01 µM
[26] = second compound 10 µM, first compound 0.0316 µM
[27] = second compound 10 µM, first compound 0.1 µM
[28] = second compound 10 µM, first compound 0.316 µM
[29] = second compound 10 µM, first compound 1 µM
[30] = second compound 10 µM, first compound 3.16 µM
[31] = second compound 0.1 µM, first compound 10 µM
[32] = second compound 0.316 µM, first compound 10 µM
[33] = second compound 1 µM, first compound 10 µM
[34] = second compound 3.16 µM, first compound 10 µM
[35] = second compound 10 µM, first compound 10 µM
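Note: spheroids exposed to compounds for seven days before readout.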
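Throughout, for viability, T/C: 100% = DMSO vehicle control luminescence of the spheroids.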

Row | Structure (SMILES) | IC50 (second compound 0.1 µM) | IC50 (second compound 0.316 µM) | IC50 (second compound 1 µM) | IC50 (second compound 3.16 µM) | IC50 (second compound 10 µM) | viability, T/C [2] | viability, T/C [3] | viability, T/C [4] | viability, T/C [5] | viability, T/C [6] | viability, T/C [8] | viability, T/C [9] | viability, T/C [10] | viability, T/C [11] | viability, T/C [14] | viability, T/C [15] | viability, T/C [20] | viability, T/C [21] | viability, T/C [26] | viability, T/C [27] | further results
1 | CC1COCCN1c1cc(-c2ccnn2C)c2ccnc(-c3ccn[nH]3)c2n1 (stereo not given) + CC1OCC2(CCN(c3cnc(Sc4ccnc(N)c4Cl)c(N)n3)CC2)C1N | 303 nM | 323 nM | 315 nM | 165 nM | 152 nM | 107% | 75.5% | 48.6% | 36.4% | 24.5% | 101% | 83.5% | 49.8% | 33% | 89.8% | 79% | 74.8% | 57% | 65.8% | 58.3% | viability, T/C [1]: 114%; viability, T/C [7]: 90.5%; viability, T/C [12]: 24.4%; viability, T/C [13]: 88.7%; viability, T/C [16]: 47.1%; viability, T/C [17]: 34.6%; viability, T/C [18]: 21.2%; viability, T/C [19]: 69.2%; viability, T/C [22]: 39.2%; viability, T/C [23]: 23.1%; viability, T/C [24]: 21.9%; viability, T/C [25]: 67.1%; viability, T/C [28]: 35.8%; viability, T/C [29]: 27.2%; viability, T/C [30]: 20%
2 | CCNC(=O)CC1N=C(c2ccc(Cl)cc2)c2cc(OC)ccc2-n2c(C)nnc21 (stereo not given) + CC1OCC2(CCN(c3cnc(Sc4ccnc(N)c4Cl)c(N)n3)CC2)C1N | > 10000 nM | > 10000 nM | > 10000 nM | 5860 nM | > 10000 nM | 111% | 103% | 99.9% | 95.6% | 94.9% | 94.2% | 108% | 81.9% | 89.5% | 84.8% | 83.3% | 73% | 69.3% | 70.5% | 67.4% | viability, T/C [31]: 77.2%; viability, T/C [12]: 77.8%; viability, T/C [32]: 68.5%; viability, T/C [16]: 93.1%; viability, T/C [17]: 73.9%; viability, T/C [18]: 86.1%; viability, T/C [33]: 65.6%; viability, T/C [22]: 73%; viability, T/C [23]: 67%; viability, T/C [24]: 58.9%; viability, T/C [34]: 42%; viability, T/C [28]: 57.8%; viability, T/C [29]: 56.5%; viability, T/C [30]: 56.5%; viability, T/C [35]: 50.5%
3 | Cn1nccc1Nc1nccc(-c2cc3c(s2)C(C)(C)N(CCN2CCOCC2)C3=O)n1 + CC1OCC2(CCN(c3cnc(Sc4ccnc(N)c4Cl)c(N)n3)CC2)C1N | 1720 nM | 1810 nM | 1290 nM | 469 nM | 422 nM | 97.6% | 98.1% | 100% | 86.9% | 8.68% | 83.8% | 86.8% | 85.3% | 69.8% | 77.4% | 83.7% | 68% | 77.5% | 64% | 79.5% | viability, T/C [31]: 4.09%; viability, T/C [12]: 31.1%; viability, T/C [32]: 4.06%; viability, T/C [16]: 81.8%; viability, T/C [17]: 61.1%; viability, T/C [18]: 11.1%; viability, T/C [33]: 3.68%; viability, T/C [22]: 75.8%; viability, T/C [23]: 4.42%; viability, T/C [24]: 2.57%; viability, T/C [34]: 1.97%; viability, T/C [28]: 63%; viability, T/C [29]: 10.3%; viability, T/C [30]: 3.18%; viability, T/C [35]: 2.52%
4 | CC(=O)OC12COC1CC(O)C1(C)C(=O)C(O)C3=C(C)C(OC(=O)C(O)C(NC(=O)OC(C)(C)C)c4ccccc4)CC(O)(C(OC(=O)c4ccccc4)C21)C3(C)C (stereo not given) + CNCc1ccccc1-c1csc(C(C)Nc2nc(C)nc3cc(OC)c(OC)cc23)c1 | 176 nM | 126 nM | 184 nM | 22.7 nM | < 10 nM | 86.3% | 62.6% | 37.7% | 26.1% | 25.3% | 79.9% | 55.7% | 30.4% | 25.5% | 80.5% | 61.5% | 38.9% | 9.76% | 0.14% | 1.91% | viability, T/C [1]: 101%; viability, T/C [7]: 90%; viability, T/C [12]: 25.4%; viability, T/C [13]: 81.3%; viability, T/C [16]: 39.8%; viability, T/C [17]: 25.3%; viability, T/C [18]: 24%; viability, T/C [19]: 77%; viability, T/C [22]: 13.6%; viability, T/C [23]: 0.92%; viability, T/C [24]: 23.3%; viability, T/C [25]: 1.07%; viability, T/C [28]: 0.55%; viability, T/C [29]: 24.2%; viability, T/C [30]: 0.21%
5 | CN(C)C/C=C/C(=O)Nc1cc2c(Nc3ccc(F)c(Cl)c3)ncnc2cc1O[C@H]1CCOC1 + CNCc1ccccc1-c1csc(C(C)Nc2nc(C)nc3cc(OC)c(OC)cc23)c1 | > 100 nM | > 100 nM | > 100 nM | > 100 nM | < 0.316 nM | 93.1% | 72.8% | – | – | – | 82.8% | 72.3% | – | – | 75.5% | 79.9% | 73.8% | 62.2% | 0.17% | 0.21% | viability, T/C (second compound 0.1 µM, first compound 0.000316 µM): 99.9%; viability, T/C (second compound 0.1 µM, first compound 0.001 µM): 105%; viability, T/C (second compound 0.1 µM, first compound 0.00316 µM): 96.4%; viability, T/C [1]: 94.7%; viability, T/C (second compound 0.316 µM, first compound 0.000316 µM): 104%; viability, T/C (second compound 0.316 µM, first compound 0.001 µM): 98.3%; viability, T/C (second compound 0.316 µM, first compound 0.00316 µM): 90.4%; viability, T/C [7]: 87.9%; viability, T/C (second compound 1 µM, first compound 0.000316 µM): 97.1%; viability, T/C (second compound 1 µM, first compound 0.001 µM): 89.2%; viability, T/C (second compound 1 µM, first compound 0.00316 µM): 84.6%; viability, T/C [13]: 82%; viability, T/C (second compound 3.16 µM, first compound 0.000316 µM): 84%; viability, T/C (second compound 3.16 µM, first compound 0.001 µM): 82.1%; viability, T/C (second compound 3.16 µM, first compound 0.00316 µM): 81.8%; viability, T/C [19]: 75.1%; viability, T/C (second compound 10 µM, first compound 0.000316 µM): 0.17%; viability, T/C (second compound 10 µM, first compound 0.001 µM): 0.18%; viability, T/C (second compound 10 µM, first compound 0.00316 µM): 0.18%; viability, T/C [25]: 0.16%
6 | O=C(c1cc(Cc2n[nH]c(=O)c3ccccc23)ccc1F)N1CCN(C(=O)C2CC2)CC1 + CNCc1ccccc1-c1csc(C(C)Nc2nc(C)nc3cc(OC)c(OC)cc23)c1 | > 10000 nM | > 10000 nM | > 10000 nM | > 10000 nM | < 31.6 nM | 101% | 109% | 104% | 108% | 113% | 107% | 108% | 107% | 109% | 116% | 109% | 79.6% | 97.1% | 0.19% | 0.29% | viability, T/C [31]: 105%; viability, T/C [12]: 104%; viability, T/C [32]: 105%; viability, T/C [16]: 103%; viability, T/C [17]: 110%; viability, T/C [18]: 105%; viability, T/C [33]: 103%; viability, T/C [22]: 82.4%; viability, T/C [23]: 59.3%; viability, T/C [24]: 82.3%; viability, T/C [34]: 71.6%; viability, T/C [28]: 0.18%; viability, T/C [29]: 0.17%; viability, T/C [30]: 0.17%; viability, T/C [35]: 0.22%
